Columns and labels:
PRK [1] = conditions: Kuwahara et al., 1999; Kondoh et al., 1997; not specific for PRK, also block ROCK; cited from earlier work
[2] = Isoproterenol infusion model of pathological cardiac hypertrophy, heart weight to body weight ratio; type: in vivo, Sprague-Dawley rats; conditions: isoproterenol 4.8 mg/kg/d, subcutaneous osmotic minipump, 4 days; data not shown
Experimental: (§1) For isoproterenol infusion, nine to ten-week-old male Sprague-Dawley rats were anesthetized via passive inhalation of 2.0% isoflurane. When a level of surgical anesthesia was reached, an osmotic minipump (Alzet model 2001, Alza Corp., Palo Alto Calif.) containing either vehicle (0.1% ascorbic acid in 0.9% NaCl), or isoproterenol (4.8 mg/kg/d) was subcutaneously implanted into the back between the scapulae followed by closure with 3-0 silk sutures. After 4 days of recovery, animals were sacrificed and left ventricular tissue processed for Western blot analysis as described below. Average heart weight to body weight ratios in isoproterenol versus vehicle-infused rats increased 48% (data not shown).

PRK [3] = experiment: Western blot analysis of PRK phosphorylation status in left ventricular tissue after isoproterenol infusion; type: in vivo; conditions: rat, 4 days of isoproterenol infusion compared to control saline infusion; anti-phospho-PRK Western blot; *P<0.05
Experimental: as §1
Immunoblotting analyses. […] Protein concentration was determined by BCA assay (Pierce), and 20 μg of total protein was resolved by SDS-polyacrylamide gel electrophoresis (PAGE) with gradient gels (4 to 20% polyacrylamide; Invitrogen). […] Film images were then scanned and quantified using a digital image analysis system (Alpha Innotech).
PRK phosphorylation is increased with pathological cardiac hypertrophy in vivo. […] PRK phosphorylation is readily detected by Western analysis employing anti-phospho-PRK antibodies.

SMILES | PRK inhibition (known inhibitor) (PRK [1]) | Average heart weight to body weight ratios, increase versus vehicle-infused rats [2] [%] | PRK phosphorylation (PRK [3])
O=S(=O)(c1cccc2cnccc12)N1CCCNCC1 [Fasudil] | characterized as PRK inhibitors |  | 
CC(C)NCC(O)c1ccc(O)c(O)c1 (stereo not shown) [isoproterenol] |  | 48 | increased
C[C@@H](N)[C@H]1CC[C@H](C(=O)Nc2ccncc2)CC1 [Y27632] | characterized as PRK inhibitors |  | 

Source: patent publication US20050283841A1, “Inhibition of protein kinase C-related kinase (PRK) as a treatment for cardiac hypertrophy and heart failure” (priority 2004, published 2005)
